Read-outs that look alike come from different tables or passages of the source.
Experiments:
[1] = system: giant foxtail (Setaria faberii); experiment: Test A postemergence; assay type: in vivo; conditions: Setaria faberi, post-emergence, 240 h; for pest or weed control at 125 g/ha: 125 g ai/ha; for pest or weed control at 500 g/ha: 500 g ai/ha, 0 to 100 scale, 0 is no effect, 100 is complete control
Method in brief: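 Each rating is a visual injury score from 0 to 100 given about 10 d after treatment, judged against untreated controls kept alongside in the greenhouse. In loam soil–sand blend, seeds got a preemergence directed soil spray, while postemergence plants were 2 to 10 cm tall at spraying.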

[2] = system: barnyardgrass (Echinochloa crus-galli); experiment: Test B flooded paddy test; assay type: in vivo; conditions: Echinochloa crus-galli, Flood, 250 g ai/ha, read-out: Barnyardgrass plant response rating
Method in brief: (§1)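 Compound goes directly into floodwater once pots are flooded 3 cm above soil, targeting plants at two leaves; the water depth is then held for the test duration. Plants sit 13–15 d in a greenhouse and are rated visually, 100 denoting complete control.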

rice (Oryra sativa) = experiment: Test B flooded paddy test; assay type: in vivo; conditions: Oryza sativa, Flood, 250 g ai/ha, read-out: Rice plant response rating
Method in brief: as §1

[3] = system: sedge, umbrella (small-flower umbrella sedge, Cyperus difformis); experiment: Test B flooded paddy test; assay type: in vivo; conditions: Cyperus difformis, Flood, 250 g ai/ha, read-out: Sedge, Umbrella plant response rating
Method in brief: as §1

[4] = system: ducksalad (Heteranthera limosa); experiment: Test B flooded paddy test; assay type: in vivo; conditions: Heteranthera limosa, Flood, 250 g ai/ha, read-out: Ducksalad plant response rating
Method in brief: as §1

[5] = scale of 0 to 100 where 0 is no effect and 100 is complete control
[6] = Postemergence, visual injury after approximately 10 d, 0 to 100 scale where 0 is no effect and 100 is complete control, read-out: Plant response rating, Foxtail, Giant
[7] = postemergence, visual injury on 0 to 100 scale (0 no effect, 100 complete control), approx. 10 d, read-out: Foxtail, Giant plant response rating
[8] = postemergence, read-out: Foxtail, Giant plant response rating
[9] = 0 to 100 scale where 0 is no effect and 100 is complete control

SMILES	pest or weed control at 125 g/ha ([1]; postemergence, visual injury rating after approximately 10 d, read-out: Foxtail, Giant plant response rating (0 to 100 scale, 0 no effect, 100 complete control))	melting point	pest or weed control at 250 g/ha [2, 5]	pest or weed control at 250 g/ha (rice (Oryra sativa); [5])	pest or weed control at 250 g/ha [3, 5]	pest or weed control at 250 g/ha [4, 5]	pest or weed control at 125 g/ha [1, 6]	pest or weed control at 125 g/ha [1, 7]	pest or weed control at 500 g/ha [1, 8]	pest or weed control at 250 g/ha [2, 9]	pest or weed control at 250 g/ha (rice (Oryra sativa); [9])	pest or weed control at 250 g/ha [3, 9]	pest or weed control at 250 g/ha [4, 9]
CCc1cc([C@H]2CNC(=O)[C@@H]2C(=O)Nc2ccccc2F)cs1 [Compound 913]	30%	96 to 100 °C	0%	0%	0%	90%							
O=C1NC[C@H](c2cc(C(F)(F)F)ccn2)[C@H]1C(=O)Nc1ccccc1F [Compound 948]		115 to 119 °C	0%	0%	0%	0%	70%						
Cc1ccc([C@H]2CCNC(=O)[C@@H]2C(=O)Nc2cccc(F)c2F)cc1 [Compound 973]		174 to 176 °C	0%	0%	0%	100%	70%						
CN1CC(c2cccc(Br)c2)C(C(=O)Nc2ccccc2F)C1=O (centres unmarked) [Compound 1132]		142 to 146 °C						80%	90%	60%	15%	40%	90%
O=C1NC[C@H](c2ccc(F)c(OC(F)(F)C(F)(F)Br)c2)[C@H]1C(=O)Nc1ccccc1F [Compound 1134]		133 to 137 °C						30%	80%	0%	0%	0%	0%
